US20120316106A1, “SYNERGISTIC ANTIBIOTIC COMBINATIONS AND DERIVATIVES” (YEDA RESEARCH AND DEVELOPMENT CO. LTD., priority 2009, published 2012)
“Also recorded” adds a separate entry of the source. Read-outs that look alike come from different tables or passages of the source.

Columns and labels:
[1] = tested on: E. coli cell-free transcription-translation system; assay: Inhibition of E. coli cell-free transcription-translation (firefly luciferase readout); type: biochemical
Procedure: (§1) To address this question, it was first verified that LM binds to the ribosome and inhibits protein synthesis. […] RNA probing was then utilized to follow the binding of LC and LM to the ribosome. For the consistency of structural data, RNA probing experiments were carried out using D. radiodurans large ribosomal subunits. Binding of LC and LM was analyzed using chemical modifying reagents 1-cyclohexyl-3-(2-morpholinoethyl) carbodiimide metho-p-toluene sulfonate (CMCT) and dimethyl sulfate (DMS).
(§2) Antibiotic binding and inhibition of cell-free translation were determined as described in (Xiong, L. et al., 2005, Antimicrob Agents Chemother 49, 281-288). Inhibition of the peptidyl transferase reaction by LC was performed and analyzed as described in. The data were analyzed using Prism 4 (GraphPad Software). RNA probing was carried out as described in (Moazed, D. and Noller, H. F., 1987, Biochemie 69, 879-884) using D50S.
The E. coli cell-free transcription-translation system for circular DNA (Promega) was pre-incubated with varying concentrations of antibiotics for 5 min at 20° C. The reactions (10 μl final volume) were initiated by adding 0.64 μg of pBestLuc plasmid DNA (Promega). Reactions were incubated for 40 min at 20° C. and stopped by chilling on ice. The activity of firefly luciferase synthesized in the reaction was determined in 96-well plates using Bright-Glo Luciferase Assay System (Promega) as recommended by the manufacturer.

[2] = tested on: D. radiodurans 50S ribosomal subunits (23S rRNA); assay: RNA probing (chemical footprinting) of 23S rRNA with CMCT and DMS; type: binding; settings: LC 50 μM, LM 500 μM, D50S 200 nM; for Protection of 23S rRNA residues from CMCT modification: ERY 50 μM
Procedure: as §1
Similar to ERY and other 14 member-ring macrolides, binding of LM results in protection of U2609 from CMCT modification and of A2058 and A2059 from DMS chemical modification performed on the 23S rRNA of D. Radiodurans in complex with the combinations of the antibiotics (FIGS. 6C,D). The idiosyncratic protections of 23S rRNA residues were exploited against CMCT modification, afforded by LC and LM, to interrogate their simultaneous interaction with the ribosome. […] However, the accessibility of these residues to CMCT is not affected by LM or ERY (FIG. 6). […] In contrast, and in agreement with the binding experiments, the LC-mediated protection of U2506 and U2585 is partially relieved upon addition of ERY (FIG. 6D) and ERY-dependent protection of U2609 is partly reversed when LC is present. Thus, while LC and ERY compete for the binding to the ribosome, LC and LM can bind simultaneously to their respective targets in the PTC and NPET.
as §2
RNA probing was carried out essentially as described (16, 46) using D. radiodurans 50S ribosomal subunits at 200 nM concentration and antibiotics at the following concentrations: LC—50 μM, LM—500 μM, ERY—50 μM. Prior to addition of the modifying reagents, ribosomal subunits were pre-incubated with the drug 10 min at 37° C. and then 10 min at 20° C.

[3] = tested on: Gram-positive bacteria; settings: background statement; cited from earlier work
[4] = biological target: D. radiodurans 50S subunits; assay: Competition with 14C-ERY for binding to 50S subunits; settings: 0.1 μM 50S, 0.1 μM 14C-erythromycin, FIG. 5C; read-out: IC50, displacement of 14C-ERY from D50S
From the text: S. rochei secretes two antibiotics, a 17-member ring macrocyclic LC and a 14-member ring macrolide, lankamycin (LM). LM is structurally similar to ERY (FIG. 1) and thus it was assumed that it is likely to bind to the ribosome at the site and orientation similar to ERY, namely at the NPET in immediate proximity to the PTC, the LC binding site. […] These observations raised the question whether, similarly to ERY, LM would also compete with LC for ribosome binding.
as §2
D. radiodurans 50S subunits (0.1 μM) were preincubated 15 min at 37° C. with 0.1 μM of ^14C-erthromycin (48.8 mCi/mmol, Perkin Elmer) in 100 μl binding buffer (20 mM Tris-HCl, pH 7.5, 10 mM MgCl2, 250 mM NH4Cl, 6 mM β-mercaptoethanol). […] The ribosome-antibiotic complexes were purified by gel filtration in BioGel P30 spin columns as described (Xiong, L. et al. ibid) and the amount of ribosome-bound radioactivity was measured by scintillation counting.

[5] = tested on: eukaryotic cell-free translation; settings: background statement; cited from earlier work
[6] = tested on: Staphylococcus aureus 70S ribosomes; assay: Inhibition of peptidyl transferase (puromycin) reaction, 70S ribosomes; type: biochemical; settings: S. aureus 70S ribosomes, FIG. 5B; read-out: IC50, inhibition of puromycin reaction (peptide bond formation)
Procedure: as §2
(§3) In the reaction catalyzed by large ribosomal subunits, D. radiodurans 50S subunits (200 nM final concentration) were combined in 50 μl of the reaction buffer (20 mM Tris-HCl, pH 8.0, 20 mM MgCl2, 400 mM KCl) with 28 nM [^3H]-fMet-tRNA, 1 mM puromycism at varying concentrations of LC. Reactions were initiated by addition of 25 μl methanol and incubated on ice for 30 min. Reactions were stopped and analyzed as described (Maguire et al., 2005, Mol Cell 20, 427-435). In the ribosome-based puromycin assay, 70S ribosomes of S. aureus (at a final concentration of 200 nM) were preincubated for 15 min at 37° C. in 50 μl of polyamine buffer (20 mM HEPES-KOH, pH 7.6, 6 mM Mg-acetate, 150 mM NH4Cl, 4 mM β-mercaptoethanol, 2 mM spermidine, 0.05 mM spermine) with 600 nM mRNA AAGGAGAUAAACAAUGGGU and 28 nM [^3H]-fMet-tRNA. After addition of varying concentrations of LC, puromycin was added to the final concentration of 0.5 mM and reactions were incubated for 15 m in at 37° C. […]

[7] = biological target: large ribosomal subunits of D. radiodurans; assay: Inhibition of peptidyl transferase (puromycin) reaction, isolated large subunits; type: biochemical; settings: FIG. 5B, read-out: IC50, inhibition of puromycin reaction (peptide bond formation)
Procedure: as §2, §3

[8] = background statement; cited from earlier work
[9] = Table 2, read-out: [IC50] for antibiotic inhibition of cell free translation
[10] = FIG. 5A / 5D, read-out: IC50, inhibition of bacterial (E. coli) cell-free transcription-translation

SMILES | IC50 [1, 9] [nM] | Protection of 23S rRNA residues from CMCT modification [2] | Antibiotic activity against Gram-positive bacteria [3] | IC50 [1, 10] [nM] | Protection of 23S rRNA residues from DMS modification [2] | further results
CC[C@H]1OC(=O)[C@H](C)[C@@H](O[C@H]2C[C@@](C)(OC)[C@@H](O)[C@H](C)O2)[C@H](C)[C@@H](O[C@@H]2O[C@H](C)C[C@H](N(C)C)[C@H]2O)[C@](C)(O)C[C@@H](C)C(=O)[C@H](C)[C@@H](O)[C@]1(C)O [ERY, erythromycin, reference compound] | 200 | strongly protect U2609 |  |  |  | 
CC(=O)C(=O)N[C@@H]1/C=C(C)/C=C/[C@@H](O)C/C=C(C)/C=C/[C@@H](O)C[C@H]2OC(=O)[C@]1(C)C(=O)[C@@H]2C [LC, Lankacidin C] |  | shields U2506 and U2585 from alterations; also recorded: no effect on this nucleotide | inhibits growth of Gram-positive bacteria | 1500 ± 100 | A2059 became partially protected from DMS whereas modification of A2058 was increased | IC50 [4]: 355 ± 26 nM; Effect on eukaryotic cell-free translation [5]: little effect; IC50 [6]: 320 ± 20 nM; IC50 [7]: 10000 ± 6000 nM
CO[C@H]1C[C@@H](C)O[C@@H](O[C@@H]2[C@@H](C)[C@H](O[C@H]3C[C@@](C)(OC)[C@H](OC(C)=O)[C@H](C)O3)[C@@H](C)C(=O)O[C@H]([C@@H](C)[C@H](C)O)[C@H](C)[C@H](OC(C)=O)[C@@H](C)C(=O)[C@@](C)(O)C[C@@H]2C)[C@@H]1O [LM, lankamycin] |  | strongly protect U2609 | weak antibiotic activity | 275000 ± 36000 | protects A2059 and A2058 from DMS modification | Toxicity in animal models [8]: low toxicity
CC1=C\[C@@H](O)CC(=O)Cc2nc(co2)C(=O)N2CCC=C2C(=O)O[C@H](C(C)C)[C@H](C)/C=C/C(=O)NC\C=C\1 [Virginiamycin M] | 800 |  |  |  |  | 
CC[C@H]1NC(=O)[C@@H](NC(=O)c2ncccc2O)[C@@H](C)OC(=O)[C@H](c2ccccc2)NC(=O)[C@@H]2CC(=O)CCN2C(=O)[C@H](Cc2ccccc2)N(C)C(=O)[C@@H]2CCCN2C1=O [Virginiamycin S] | 2500 |  |  |  |  | 
